Source: patent US11801247B1, “Method of treating trypanosomiasis” (KING FAISAL UNIVERSITY, priority 2023, dated 2023)
In brackets after ≈: the same amount, converted by molar mass. Like-named read-outs stand apart in the source and are kept apart here.

Legend:
[1] = target: DHFR activity of TbDHFR-TS (Trypanosoma brucei brucei, UniProt Q27783); conditions: cited from earlier work
[2] = target: TS activity of TbDHFR-TS (Trypanosoma brucei brucei, UniProt Q27783); conditions: cited from earlier work
[3] = tested on: six Trypanosoma species; assay: Anti-trypanosomal assay, six trypanosomes taken together; format: cell-based
Excerpt: (§1) Raltitrexed was purchased from ApexBio (Houston, TX, USA), and CultureSure DMSO was obtained from Wako Pure Chemical (Osaka, Japan). T. b. brucei (Tbb) GuTat3.1, T. b. rhodesiense (Tbr) IL1501, T. b. gambiense (Tbg) IL1922 (isolated from Ivory Coast), T. evansi (Tev) Tansui (isolated from Taiwan), T. equiperdum (Teq) IVM-t1 and T. congolense (Tc) IL3000 were also obtained for this study. A 96-well Optical bottom plate was purchased from ThermoFisher […] (Waltham, MA, USA). CellTiter-Glo Luminescent cell viability reagent and GloMax plate reader were purchased from Promega Corporation (Fitchburg, WI, USA). Hiram's modified Isocove's Dulbecco's medium (HMI-9), HEPES, pyruvic acid sodium salt, BSA, thymidine, 2-mercaptoethanol, L-cysteine, bathocuproine and hypoxanthine were purchased from Sigma-Aldrich (Tokyo, Japan). A basic plate shaker was obtained from IKA® JAPAN (K.K., Osaka, Japan).
(§2) The trypanocidal activity of raltitrexed was evaluated. The trypanosomes were cultured at 37° C. for Tbb, Tbg, Tbr, Teq and Tev and 33° C. for Tc in an incubator at 5% CO2 using HMI-9 supplemented with 20% heat-inactivated fetal calf serum, 60 mM HEPES, 10 μg/L insulin, 0.1 mM bathocuproine, 5.5 μg/L transferrin, 1 mM pyruvic acid sodium salt, 1 mM hypoxanthine, 16 μM thymidine, 6.7 ng/L sodium selenite, 0.0001% 2-$-mercaptoethanol, 2 mM L-cysteine and 0.4 g/L BSA. Trypanosomes were subcultured every two days. Raltitrexed was dissolved in DMSO:H2O (1:10, v/v). The effect of the solvent was assessed to be negligible on the parasite.
Initially, raltitrexed was examined at two concentrations of 25 and 0.25 μg/ml to check the possible extended spectrum opportunities against six trypanosomes. […] This range was effective in the accurate estimation of the IC50 of the compound. […] After mixing, the bioluminescence of each well was measured using a Glomax plate reader.

[4] = tested on: T. congolense (Tc) IL3000; assay: Anti-trypanosomal assay (CellTiter-Glo viability); format: cell-based; conditions: TcIL3000
Excerpt: as §1, §2
(§3) Initially, raltitrexed was examined at two concentrations of 25 and 0.25 μg/ml to check the possible extended spectrum opportunities against six trypanosomes. […] This range was effective in the accurate estimation of the IC50 of the compound. After three days of cultivation, 25 μL of CellTiter-Glo Luminescent cell viability reagent were aliquoted into each well, and the plate was shaken for 500 shakes/min by an MS3 basic plate shaker for 30 s to facilitate cell lysis and release intracellular ATP. After mixing, the bioluminescence of each well was measured using a Glomax plate reader.

[5] = tested on: T. b. rhodesiense (Tbr) IL1501; assay: Anti-trypanosomal assay (CellTiter-Glo viability); format: cell-based; conditions: TbrIL1501, mean ± SD
Excerpt: as §1, §2, §3

[6] = tested on: T. equiperdum (Teq) IVM-t1; assay: Anti-trypanosomal assay (CellTiter-Glo viability); format: cell-based; conditions: mean ± SD
Excerpt: as §1, §2, §3

[7] = tested on: T. evansi (Tev) Tansui; assay: Anti-trypanosomal assay (CellTiter-Glo viability); format: cell-based; conditions: mean ± SD
Excerpt: as §1, §2, §3

[8] = tested on: T. b. brucei (Tbb) GuTat3.1; assay: Anti-trypanosomal assay (CellTiter-Glo viability); format: cell-based; conditions: TbbGUTat3.1, mean ± SD
Excerpt: as §1, §2, §3

[9] = tested on: T. b. gambiense (Tbg) IL1922; assay: Anti-trypanosomal assay (CellTiter-Glo viability); format: cell-based; conditions: TbgIL1922, mean ± SD
Excerpt: as §1, §2, §3

[10] = tested on: T. brucei; conditions: cited from earlier work; for potency against T. brucei: thymidine and folate-deficient medium

Chain of TS activity of TbDHFR-TS (Q27783 whole entry): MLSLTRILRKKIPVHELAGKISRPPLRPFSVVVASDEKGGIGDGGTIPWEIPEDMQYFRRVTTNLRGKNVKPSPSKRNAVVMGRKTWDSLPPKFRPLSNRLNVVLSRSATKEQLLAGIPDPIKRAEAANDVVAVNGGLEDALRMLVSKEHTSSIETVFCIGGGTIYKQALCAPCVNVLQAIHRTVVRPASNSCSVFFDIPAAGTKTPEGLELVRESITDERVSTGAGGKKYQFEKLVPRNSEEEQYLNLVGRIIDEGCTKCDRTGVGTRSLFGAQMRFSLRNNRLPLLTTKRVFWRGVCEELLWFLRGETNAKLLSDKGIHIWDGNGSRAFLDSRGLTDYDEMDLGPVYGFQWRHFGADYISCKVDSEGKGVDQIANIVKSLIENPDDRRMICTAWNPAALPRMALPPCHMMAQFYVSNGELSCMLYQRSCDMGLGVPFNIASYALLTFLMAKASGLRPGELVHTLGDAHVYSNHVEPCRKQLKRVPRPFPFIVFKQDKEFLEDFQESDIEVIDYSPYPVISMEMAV
Chain of DHFR activity of TbDHFR-TS (Q27783 whole entry): as above

Cc1nc2ccc(CN(C)c3ccc(C(=O)N[C@@H](CCC(=O)O)C(=O)O)s3)cc2c(=O)[nH]1 [Raltitrexed]
IC50 [1]: 93.1 nM
IC50 [2]: 215 nM
trypanocidal action on all test strains ([3]; 25 μg/mL): suppressed all the test strains
IC50 ([3]; Trypanosoma, range across species, serial dilution 25 to 0.78 μg/mL, read-out: IC50 range over the Trypanosoma species): 5.18 to 24.1 µg/mL (≈ 11.3 to 52.6 µM)
IC50 ([3]; range against Trypanosoma, summary statement, read-out: estimated IC50 range): 8.88 to 22.5 µg/mL (≈ 19.4 to 49.1 µM)
Inhibition Rate at 25 μg/mL ([4]; 25 μg/mL, mean ± SD): low trypanocidal rate
IC50 ([4]; Trypanosoma congolense, 72 h, three days of cultivation): > 25 µg/mL
inhibition at 0.25 µg/mL ([4]; Trypanosoma congolense, 0.25 μg/mL, mean ± SD, read-out: Inhibition Rate at 0.25 μg/mL): 0%
inhibition at 25 µg/mL ([4]; Trypanosoma congolense, 25 μg/mL, mean ± SD, read-out: Inhibition Rate at 25 μg/mL): 1.77 ± 2.5%
Inhibition Rate at 25 μg/mL ([5]; 25 μg/mL): 99.68 ± 0.16%
inhibition at 0.25 µg/mL ([5]; Trypanosoma brucei, RHODESIENSE, 0.25 μg/mL, read-out: Inhibition Rate at 0.25 μg/mL): 1.01 ± 1.4%
inhibition at 25 µg/mL ([5]; Trypanosoma brucei, RHODESIENSE, 25 μg/mL, read-out: Inhibition Rate at 25 μg/mL): > 99%
Inhibition Rate at 25 μg/mL ([6]; 25 μg/mL): 99.8 ± 0.027%
inhibition at 0.25 µg/mL ([6]; Trypanosoma equiperdum, 0.25 μg/mL, read-out: Inhibition Rate at 0.25 μg/mL): 0%
inhibition at 25 µg/mL ([6]; Trypanosoma equiperdum, 25 μg/mL, read-out: Inhibition Rate at 25 μg/mL): > 99%
inhibition at 0.25 µg/mL ([7]; 0.25 μg/mL, read-out: Inhibition Rate at 0.25 μg/mL): 0%
Inhibition Rate at 25 μg/mL ([7]; 25 μg/mL): 99.9 ± 0.12%
inhibition at 25 µg/mL ([7]; 25 μg/mL, read-out: Inhibition Rate at 25 μg/mL): > 99%
Inhibition Rate at 25 μg/mL ([8]; 25 μg/mL): 99.47 ± 0.07%
inhibition at 0.25 µg/mL ([8]; Trypanosoma brucei, 0.25 μg/mL, read-out: Inhibition Rate at 0.25 μg/mL): 0%
inhibition at 25 µg/mL ([8]; Trypanosoma brucei, 25 μg/mL, read-out: Inhibition Rate at 25 μg/mL): > 99%
Inhibition Rate at 25 μg/mL ([9]; 25 μg/mL): 99.6 ± 0.33%
inhibition at 0.25 µg/mL ([9]; Trypanosoma brucei, GAMBIENSE, 0.25 μg/mL, read-out: Inhibition Rate at 0.25 μg/mL): 0%
inhibition at 25 µg/mL ([9]; Trypanosoma brucei, GAMBIENSE, 25 μg/mL, read-out: Inhibition Rate at 25 μg/mL): > 99%
effect of adding folate and thymidine on effectiveness ([10]; folate and/or thymidine added to the medium): addition of thymidine decreased the effectiveness of raltitrexed more so than the addition of folate
potency against T. brucei [10]: Nanomolar potency

Nc1nc2[nH]cc(CCc3ccc(C(=O)N[C@@H](CCC(=O)O)C(=O)O)cc3)c2c(=O)[nH]1 [pemetrexed]
potency against T. brucei [10]: Nanomolar potency

CN(Cc1cnc2nc(N)nc(N)c2n1)c1ccc(C(=O)N[C@@H](CCC(=O)O)C(=O)O)cc1 [methotrexate]
potency against T. brucei [10]: Nanomolar potency
